In one experiment the test system is C57Bl/6J mice. Description: LPS-induced endotoxic shock, serum cytokines. Format: in vivo, mouse. Particulars: for level of inflammatory cytokines in the serum: endotoxin shock model, short TSLP fragments. The procedure: (§1) Mice were treated intraperitoneally (i.p.) with short TSLP at 50, 100, 200 μg per mouse in 200 μl of injectable water twice, 12 hours and 2 hours, before LPS administration (n=8 per group). Control mice received water. LPS (E. coli serotype 026:B6; Sigma-Aldrich) was injected intraperitoneally (i.p.) at 200 μg per mouse in 200 μl of injectable water. After 6 hours mice were euthanized by exsanguination under anesthesia and blood was collected. IFNgamma, IL6 and IL12-p40 levels were detected in the serum by ELISA (R&D Systems), according to manufacturer's instructions.

For experiment [1], the system named is peripheral blood mononuclear cells (PBMC). Description: bidirectional allogenic mixed lymphocyte reaction (MLR), IFNgamma by ELISA. Format: cell-based, human. Particulars: PBMC from two donors 1:1, increasing doses, 5 days. An excerpt: Buffy coats were obtained from healthy donors (Abbiategrasso hospital, Italy) with informed consent for research use. Peripheral blood mononuclear cells (PBMC) were separated with Ficoll (GE Healthcare) gradient centrifugation and then resuspended and cultured in RPMI 1640 medium (Lonza) containing 10% fetal bovine serum (Gibco), 1% Glutamine 1% pyruvate, 1% non essential AA and 1% Penicillin-Streptomycin. PBMC from two different donors were co-cultured (1:1) in presence of long and short TSLP at different concentrations. After 5 days supernatants were collected and IFNgamma levels were measured by ELISA (R&D systems).
On the technique in general: In an ELISA, binding on a coated surface is turned into a signal by an enzyme label.

Experiment [2] concerns monocyte-derived dendritic cells. The experiment can be described thus: monocyte-derived DCs conditioned 24 h, then Salmonella challenge; cytokine secretion by cytometric bead assay. Format: cell-based, human. The note with it: 24 h conditioning, then LPS or bacterial stimulation. On the procedure: (§2) Peripheral CD14^+ monocytes were isolated from PBMC using human CD14^+ microbeads (Miltenyi Biotec) according to the manufacturer's instructions. Cells were then cultivated in complete RPMI 1640 medium in the presence of IL4 (2.5 ng/ml) and GM-CSF (5 ng/ml) (BD Biosciences) for 6 days to obtain monocyte-derived dendritic cells. The percentage and the phenotype of cell subsets were evaluated before and after differentiation by flow cytometry. Dendritic cells were seeded in complete RPMI 1640 medium at 1×10^6/ml in 48-well plates in the presence of short TSLP at different concentrations or culture medium alone. After 24 hours of culture dendritic cells were gently washed and challenged with Salmonella typhimurium FB62 (MOI 1:1) for 1 hour. Bacteria were then washed out and the medium replaced with medium containing 100 μg/ml gentamycin. Cytokine secretion was assessed after 24 hours by cytometric bead assay Flex sets (BD Biosciences). CBA were acquired on a BD Accuri C6 (BD Biosciences) and analyzed with FCAP software (BD Biosciences).

Experiment [3] has the same test system. Description: FACS analysis of activation status of monocyte derived DCs. The note with it: 24 h conditioning; immature and Salmonella treated (mature) DCs. Format: cell-based, human. On the procedure: as §2
Cells were stained with monoclonal anti-human fluorescently conjugated antibodies: CD14 (M5E2), CD19 (HIB19), CD11c (B-ly6), CD45RA (HI100), CD3 (UCHT1), TNF (Mab11), IFNg (4S.B3), TNF (Mab11) from BD Biosciences; CD4 (RPA-T4) from Ebioscience; CD1a (HI149) and TSLPR (1B4) from Biolegend.

In experiment [4] the test system is mice with DSS-induced colitis. Description: DSS-induced colitis. Particulars: 3% DSS, 200 μg i.p. every other day. Type of experiment: in vivo, mouse. On the procedure: Colitis was induced by adding 3% (w/v) DSS (TdB Consultancy AB, Uppsala, Sweden) to drinking water for 9 days. Mice were treated i.p. with short TSLP (200 μg in 200 μl of injectable water) the day before DSS administration and every other day during the entire study. Mice were monitored daily for weight loss.

Experiment [5] concerns naive CD4 T cells cocultured with mDC. The experiment can be described thus: conditioned myeloid DCs cocultured with naive CD4 T cells. Type of experiment: cell-based, human. On the procedure:
(§3) Myeloid BDCA1+ cells were isolated from PBMC using CD1c (BDCA-1)+ Dendritic Cell Isolation Kit (Miltenyi Biotec) according to the manufacturer's instructions. […] Cells were then washed and cocultured with naïve CD4 T cells from a different donor (ratio 1 DC: 5 T). CD4 cells were isolated using naive CD4+ T Cell Isolation Kit II (Miltenyi Biotec) according to the manufacturer's instructions. After 6 days supernatants were collected and cells were restimulated for 4 hours with PMA (phorbol 12-myristate 13-acetate, 50 ng/ml) and ionomycin (1 ug/ml); for the last 3 hours brefeldin A (10 ug/ml) was added to the culture. Intracellular staining for TNF and IFNgamma positive cells was performed afterwards. CCL17, CCL22 and IFNgamma levels were assessed in the supernatant of DC or of the DC-T culture by ELISA (R&D Systems).

Experiment [6] deals with intestinal mucosa from ulcerative colitis patients. Description: ex-vivo organ culture of intestinal mucosa from ulcerative colitis patients. Details: species or system human. Particulars: 100 and 1000 ng/ml. On the procedure:
The activity of short TSLP on IBD tissues was assessed directly on human intestinal mucosa. Briefly, IBD mucosa was separated from the submucosa and mounted as described (Tsilingiri K., et al. J Vis Exp. 2013).

A further experiment concerns tslpr-/- mice. The experiment can be described thus: LPS-induced endotoxic shock in TSLPR knock-out mice. Format: in vivo, mouse. The note with it: 200 μg i.p. The procedure:
Female C57Bl/6J mice (8 to 10 weeks of age) were obtained from Charles River Laboratories (Milan, Italy). TSLPR-deficient mice on the C57Bl/6J background were provided by Dr W. J. Leonard (Laboratory of Molecular Immunology, NHLBI, USA). Mice were bred and maintained at IFOM-IEO campus animal facility under specific pathogen-free conditions. All experiments were performed in accordance with the guidelines established in the Principle of Laboratory Animal Care (directive 86/609/EEC).
as §1

The subject of experiment [7] is myeloid dendritic cells (mDC). The experiment can be described thus: CCL17 and CCL22 ELISA in supernatants of myeloid DCs. Type of experiment: cell-based, human. The note with it: 24 hours, in the absence and in the presence of the short isoform. The procedure: as §3
Experiment [8] deals with myeloid dendritic cells (mDC). Description: flow cytometry of STAT5 pY694 in myeloid dendritic cells. Format: cell-based, human. The note with it: 15 minutes, 3.5 nM, in the absence and in the presence of the short isoform. The procedure:
Control conditions included cells either left unstimulated (negative control) or incubated with sodium pervanadate ([…], positive control, data not shown). At the end of incubation cells were rapidly spun, fixed with BD Cytofix™ Buffer for 15 minutes at 37° C. and permeabilized with BD™ Phosflow Perm Buffer III on ice for 30 minutes, followed by intracellular staining using mouse anti-pSTAT5 (pY694) antibody (45/Stat5, BD Biosciences) or isotype antibody (MOPC-21). Samples were acquired on a BD Cantoll flow cytometer (BD Biosciences) and analyzed with FlowJo software (v8.7, Tree Star).

The subject of the next experiment is HaCaT cells. Description: qPCR of TSLP isoform mRNA in challenged HaCaT keratinocytes. Type of experiment: cell-based, human. Particulars: 24 hours challenge. The procedure: RNA was extracted using the RNeasy Micro Kit (Qiagen). RNA was reverse transcribed with oligo(dT) and ImProm-II™ Reverse Transcriptase (Promega). Quantitative real-time PCRs were performed with Fast SYBR Green PCR kit on the Applied Biosystems 7900HT Fast RT-PCR System (Applied Biosystems). Results were quantified using the 2-DCt method (Livak and Schmittgen, Methods, 2001). Gene expression was normalized to the expression of the housekeeping gene, gapdh.
Caco2 cells were cultured in DMEM supplemented with 10% FBS, 1% Glutamine, 1% non-essential aminoacids, 1% Penicillin-Streptomycin. HaCaT cells were cultured in DMEM supplemented with 10% FBS, 1% Glutamine, 1% Penicillin-Streptomycin. For growth on transwell inserts (Corning), 2×10^5 caco2 cells were seeded on 6 mm^2 transwells and grown for 10-12 days, until transepithelial resistance was roughly […]. Cells were infected with bacteria in the absence of antibiotics at a multiplicity of infection of 1:100 for one hour. Then medium was replaced with complete medium containing 100 μg/mL Gentamicin and the cells were cultured for a further 23 hours. HaCaT cells were challenged with calcitriol, an active form of vitamin D, (10 μM, Enzo Life Sciences), or poly(I:C) (1 μg/mL) for 24 hours. At the end of the challenge cells were lysed in Trizol (Ambion, Life Technologies) reagent for RNA extraction or RIPA buffer for protein extraction.
(Quantitative PCR measures a nucleic acid by following its amplification.)

The mark [9] stands for this setting: i.p. 12 hours and 2 hours before LPS, 6 hours after LPS, dose-dependent.

In the case of “C terminal peptide: C terminal fragment of short TSLP, aa 24-63 of SEQ ID NO: 1, mw 4.8 KDa (ATQAMKKRRKRKVTTNKCLEQVSQLQGLWRRFNRPLLKQQ; listed as Homo sapiens)”, in the experiment on C57Bl/6J mice, the “level of inflammatory cytokines in the serum” value is “able to reduce the level of inflammatory cytokines in the serum”. The “IFN-gamma release in MLR” value in [1] is “inhibiting IFNgamma secretion”.
For “N terminal: N terminal fragment of short TSLP, aa 4-40 of SEQ ID NO: 1, mw 4.2 KDa (MKTKAALAIWCPGYSETQINATQAMKKRRKRKVTTNK; listed as Homo sapiens)” the same measures were “did not exert any effects” and “inhibiting IFNgamma secretion”.
In the case of “short TSLP: short TSLP peptide, aa 4-63 of SEQ ID NO: 1, mw 7 KDa, synthesized in house”, in [2], the “capacity to release IL12-p70” value is reported as “strongly affected”, the “capacity to release IL-1beta” value was “strongly affected”, the “capacity to release IL-6” value was “strongly affected” and the “capacity to release IL-10” value is recorded as “strongly affected”. Further, the “capacity to release TNF-alfa” value in [2] was “strongly affected”. Besides, the “expression of maturation markers CD80, CD86 or HLA-DR” value in [3] is listed as “no change”. Further, in the experiment with C57Bl/6J mice (setting [9]), the “IFN-γ in the sera” value is “significant decrease”, the “IL-6 in the sera” value was “significant decrease” and the “IL-12p40 in the sera” value is “significant decrease”. Besides, the body weight loss entry in [4] was “significantly limiting weight loss”. In addition, the “percentage of Th1 cells” value in experiment [5] (conditioned DCs 24 h, 6 days coculture, IFNgamma intracellular staining) was “reducing the percentage of Th1 cells”. Besides, the “IFN-gamma secretion in DC-T coculture” value in experiment [5] (conditioned DCs 24 h, supernatant day 6) is recorded as “reducing”. The “counter effect to long TSLP on myeloid DCs” value in [5] (equimolar ratio with long TSLP) is recorded as “does not mediate a counter effect to the long isoform”. Besides, in [6], the “ongoing inflammation in the tissue” value is recorded as “ameliorated the ongoing inflammation in the tissue”, the “production of mucous by goblet cells” value was “restored the production of mucous by goblet cells” and the tissue architecture entry was “normalized tissue architecture”. Further, the “inhibition of the release of IFN-gamma” value in experiment [1] is recorded as 50%. The “anti-inflammatory effect (serum cytokines) in TSLPR knock-out mice” value in the experiment with tslpr-/- mice is listed as “also manifested”.
On to “long TSLP: recombinant human TSLP long isoform, aa. 29-159 of SEQ ID NO: 2, from R&D Systems, or produced in house in baculovirus”, for which, in experiment [7], the “secretion of CCL17” value is recorded as “significantly increased” and the “secretion of CCL22” value is recorded as “significantly increased”. In addition, the “ongoing inflammation in the tissue” value in experiment [6] was “only short TSLP ameliorated the ongoing inflammation”. Also, the “IFN-gamma release in MLR” value in experiment [1] was “increasing the amount of IFN-gamma released”. In [8], the STATS phosphorylation entry was “significantly increased”.
Turning to `C=C1/C(=C\C=C2/CCC[C@]3(C)[C@@H]([C@H](C)CCCC(C)(C)O)CC[C@@H]23)C[C@@H](O)C[C@@H]1O` [vitamin D, calcitriol], the “short TSLP mRNA” value with HaCaT cells is “significantly upregulated mRNA for short TSLP”.
As to polyI:C, the “long TSLP mRNA” value in the experiment on HaCaT cells is “upregulated the long isoform”.
